Test results reported in patent US8440652B2, “MST1 kinase inhibitors and methods of their use” (Lexicon Pharmaceuticals, Inc., priority 2011, dated 2013).
Where two headings read alike, the source gives them in different places.

Molecular target: T1, MST1 (Homo sapiens, UniProt Q13043)
T1 sequence (Q13043 1-487): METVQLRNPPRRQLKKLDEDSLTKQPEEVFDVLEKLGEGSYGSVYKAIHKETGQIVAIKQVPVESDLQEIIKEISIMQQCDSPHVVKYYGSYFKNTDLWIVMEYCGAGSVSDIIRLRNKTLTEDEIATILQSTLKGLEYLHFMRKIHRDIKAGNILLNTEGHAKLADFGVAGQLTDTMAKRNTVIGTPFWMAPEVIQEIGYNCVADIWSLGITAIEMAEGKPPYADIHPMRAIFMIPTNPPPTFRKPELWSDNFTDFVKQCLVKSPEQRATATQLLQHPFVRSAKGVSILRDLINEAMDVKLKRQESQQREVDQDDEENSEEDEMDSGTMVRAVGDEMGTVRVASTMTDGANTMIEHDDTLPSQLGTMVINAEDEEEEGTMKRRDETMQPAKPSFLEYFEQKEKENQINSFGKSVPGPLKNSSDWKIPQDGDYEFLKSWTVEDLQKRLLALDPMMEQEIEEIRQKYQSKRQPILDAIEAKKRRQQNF
Test: In vitro measurement of MST1 inhibition (Z′-Lyte kinase assay)
Format: biochemical

[1] = 1 μM ATP, read-out: IC50 (μM) 1 μM ATP
[2] = 50 μM ATP, read-out: IC50 (μM) 50 μM ATP

Work on `Cc1cc(-c2cnc(N)c(-c3ccc4c(c3)C3(CC3)CNC4=O)n2)ccc1S(=O)(=O)NC1CC1` [4-(5-amino-6-(1′-oxo-2′,3′-dihydro-1′H-spiro[cyclopropane-1,4′-isoquinolin]-6′-yl)pyrazin-2-yl)-N-cyclopropyl-2-methylbenzenesulfonamide] yielded an IC50 [1] of under 0.01 µM and an IC50 [2] of under 0.01 µM.

Work on `CNC(=O)N1CCc2cc(-c3nc(-c4ccc(S(=O)(=O)N(C)C5CC5)cc4)cnc3N)ccc21` [5-(3-amino-6-(4-(N-cyclopropyl-N-methylsulfamoyl)phenyl)pyrazin-2-yl)-N-methylindoline-1-carboxamide] yielded an IC50 [1] of under 0.05 µM and an IC50 [2] of under 0.01 µM.

`CC(C)Oc1cc(-c2nc(-c3ccc(S(=O)(=O)N(C)C4CC4)cc3)cnc2N)ccc1C(N)=O` [4-(3-amino-6-(4-(N-cyclopropyl-N-methylsulfamoyl)phenyl)pyrazin-2-yl)-2-isopropoxybenzamide] gave an IC50 [1] of under 0.05 µM and an IC50 [2] of under 0.01 µM.

Compound `CC1(C)C(=O)NC(=O)c2ccc(-c3nc(-c4ccc(S(=O)(=O)NC5CC5)cc4)cnc3N)cc21` [4-(5-amino-6-(4,4-dimethyl-1,3-dioxo-1,2,3,4-tetrahydroisoquinolin-6-yl)pyrazin-2-yl)-N-cyclopropylbenzenesulfonamide] has an IC50 [1] of under 0.15 µM and an IC50 [2] of under 0.15 µM.

`NC(=O)c1ccc(-c2cc(-c3ccc(S(N)(=O)=O)cc3)cnc2N)cc1` [4-(2-amino-5-(4-sulfamoylphenyl)pyridin-3-yl)benzamide] gave an IC50 [2] of under 0.15 µM.

Work on `CN1Cc2cc(-c3nc(-c4ccc(S(=O)(=O)N(C)C5CC5)cc4)cnc3N)ccc2C(=O)N1` [4-(5-amino-6-(3-methyl-1-oxo-1,2,3,4-tetrahydrophthalazin-6-yl)pyrazin-2-yl)-N-cyclopropyl-N-methylbenzenesulfonamide] yielded an IC50 [1] of under 0.05 µM and an IC50 [2] of under 0.01 µM.

`CN(C1CC1)S(=O)(=O)c1ccc(-c2cnc(N)c(-c3ccc4c(c3)NCCNC4=O)n2)cc1` [4-(5-amino-6-(5-oxo-2,3,4,5-tetrahydro-1H-benzo[e][1,4]diazepin-8-yl)pyrazin-2-yl)-N-cyclopropyl-N-methylbenzenesulfonamide] was tested, and the IC50 [1] was under 0.01 µM and the IC50 [2] was under 0.01 µM.

Work on `Nc1ncc(-c2ccc(S(=O)(=O)NC3CC3)cc2)nc1-c1ccc2c(c1)NCCNC2=O` [4-(5-amino-6-(5-oxo-2,3,4,5-tetrahydro-1H-benzo[e][1,4]diazepin-8-yl)pyrazin-2-yl)-N-cyclopropylbenzenesulfonamide] yielded an IC50 [1] of under 0.01 µM and an IC50 [2] of under 0.01 µM.

`CN(C1CC1)S(=O)(=O)c1ccc(-c2cnc(N)c(-c3ccc4c(c3)OCCNC4=O)c2)cc1` [4-(6-amino-5-(5-oxo-2,3,4,5-tetrahydrobenzo[f][1,4]oxazepin-8-yl)pyridin-3-yl)-N-cyclopropyl-N-methylbenzenesulfonamide] showed an IC50 [1] of under 0.01 µM and an IC50 [2] of under 0.01 µM.

`C[C@H]1CNc2cc(-c3nc(-c4ccc(S(=O)(=O)N(C)C5CC5)cc4)cnc3N)ccc2C(=O)N1` [(S)-4-(5-amino-6-(3-methyl-5-oxo-2,3,4,5-tetrahydro-1H-benzo[e][1,4]diazepin-8-yl)pyrazin-2-yl)-N-cyclopropyl-N-methylbenzenesulfonamide] was tested, and the IC50 [1] was under 0.01 µM and the IC50 [2] was under 0.01 µM.

For `CCN(CC)S(=O)(=O)c1ccc(-c2cnc(N)c(-c3ccc(C(N)=O)c(F)c3)c2)cc1` [4-(2-amino-5-(4-(N,N-diethylsulfamoyl)phenyl)pyridin-3-yl)-2-fluorobenzamide], the IC50 [2] was under 0.05 µM.

Work on `CCN(C)S(=O)(=O)c1ccc(-c2cnc(N)c(-c3ccc4c(O)nccc4c3)n2)cc1` [4-(5-amino-6-(1-hydroxyisoquinolin-6-yl)pyrazin-2-yl)-N-ethyl-N-methylbenzenesulfonamide] yielded an IC50 [1] of under 0.01 µM and an IC50 [2] of under 0.01 µM.

`CC(C)(C#N)c1ccc(-c2cnc(N)c(-c3ccc4c(c3)CCNC4=O)n2)s1` [2-(5-(5-amino-6-(1-oxo-1,2,3,4-tetrahydroisoquinolin-6-yl)pyrazin-2-yl)thiophen-2-yl)-2-methylpropanenitrile] was tested, and the IC50 [1] was under 0.05 µM and the IC50 [2] was under 0.01 µM.

With `CN(C1CC1)S(=O)(=O)c1ccc(-c2cnc(N)c(-c3ccc4c(c3)CCNC4=O)c2)nc1` [6′-amino-N-cyclopropyl-N-methyl-5′-(1-oxo-1,2,3,4-tetrahydroisoquinolin-6-yl)-[2,3′-bipyridine]-5-sulfonamide] the IC50 [1] was under 0.01 µM and the IC50 [2] was under 0.01 µM.

`Nc1ncc(-c2ccc(S(=O)(=O)NC3CC3)cc2)nc1-c1ccc2c(c1)C1(CC1)NC2=O` [4-(5-amino-6-(3′-oxospiro[cyclopropane-1,1′-isoindolin]-6′-yl)pyrazin-2-yl)-N-cyclopropylbenzenesulfonamide] showed an IC50 [1] of under 0.05 µM and an IC50 [2] of under 0.01 µM.

Work on `Nc1ncc(-c2ccc(S(=O)(=O)NC3CC3)cn2)cc1-c1ccc2c(c1)CCNC2=O` [6′-amino-N-cyclopropyl-5′-(1-oxo-1,2,3,4-tetrahydroisoquinolin-6-yl)-[2,3′-bipyridine]-5-sulfonamide] yielded an IC50 [1] of under 0.01 µM and an IC50 [2] of under 0.01 µM.

Work on `Cc1cc(-c2cnc(N)c(-c3ccc4c(c3)CCNC4=O)c2)ncc1S(=O)(=O)NC1CC1` [6′-amino-N-cyclopropyl-4-methyl-5′-(1-oxo-1,2,3,4-tetrahydroisoquinolin-6-yl)-[2,3′-bipyridine]-5-sulfonamide] yielded an IC50 [1] of under 0.01 µM and an IC50 [2] of under 0.01 µM.

With `CCNS(=O)(=O)c1ccc(-c2cnc(N)c(-c3ccc(C(N)=O)cn3)c2)cc1` [2′-amino-5′-(4-(N-ethylsulfamoyl)phenyl)-[2,3′-bipyridine]-5-carboxamide] the IC50 [1] was under 0.05 µM and the IC50 [2] was under 0.01 µM.

`[2H]C([2H])([2H])N(C1CC1)S(=O)(=O)c1ccc(-c2cnc(N)c(-c3ccc4c(c3)CCNC4=O)n2)cc1` [4-(5-amino-6-(1-oxo-1,2,3,4-tetrahydroisoquinolin-6-yl)pyrazin-2-yl)-N-cyclopropyl-N-trideuteromethylbenzenesulfonamide] showed an IC50 [1] of under 0.01 µM and an IC50 [2] of under 0.01 µM.

`CCN(CC)S(=O)(=O)c1ccc(-c2cnc(N)c(-c3ccc4c(=O)[nH]oc4c3)c2)cc1` [4-(6-amino-5-(3-oxo-2,3-dihydrobenzo[d]isoxazol-6-yl)pyridin-3-yl)-N,N-diethylbenzenesulfonamide] showed an IC50 [2] of under 0.15 µM.

`COc1ccc(-c2cnc(N)c(C(=O)NC3CCCCC3)n2)cc1OC` [3-amino-N-cyclohexyl-6-(3,4-dimethoxyphenyl)pyrazine-2-carboxamide] gave an IC50 [2] of under 0.15 µM.

Compound `CCS(=O)(=O)Nc1ccc(-c2cnc(N)c(-c3ccc4c(c3)CCNC4=O)c2)cc1` [N-(4-(6-amino-5-(1-oxo-1,2,3,4-tetrahydroisoquinolin-6-yl)pyridin-3-yl)phenyl)ethanesulfonamide] has an IC50 [1] of under 0.05 µM and an IC50 [2] of under 0.01 µM.

With `CC1(C)CNC(=O)c2ccc(-c3nc(-c4ccc(S(=O)(=O)NC5CC5)cc4)cnc3N)cc21` [4-(5-amino-6-(4,4-dimethyl-1-oxo-1,2,3,4-tetrahydroisoquinolin-6-yl)pyrazin-2-yl)-N-cyclopropylbenzenesulfonamide] the IC50 [1] was under 0.01 µM and the IC50 [2] was under 0.01 µM.

`CCNS(=O)(=O)c1ccc(-c2cnc(N)c(C(=O)NC3CCCCC3)n2)cc1` [3-amino-N-cyclohexyl-6-(4-(N-ethylsulfamoyl)phenyl)pyrazine-2-carboxamide] showed an IC50 [1] of under 0.15 µM and an IC50 [2] of under 0.05 µM.

With `CC(=O)NS(=O)(=O)c1ccc(-c2cnc(N)c(-c3ccc(C(N)=O)cc3)c2)cc1` [4-(5-(4-(N-acetylsulfamoyl)phenyl)-2-aminopyridin-3-yl)benzamide] the IC50 [2] was under 0.15 µM.

`CC(Oc1ccc(-c2cnc(N)c(-c3ccc4c(c3)CCNC4=O)n2)cc1)C1CC1` (centres unmarked) [6-(3-amino-6-(4-(1-cyclopropylethoxy)phenyl)pyrazin-2-yl)-3,4-dihydroisoquinolin-1(2H)-one] gave an IC50 [1] of under 0.05 µM and an IC50 [2] of under 0.01 µM.

Compound `CC(C)(C)c1ccc(-c2cnc(N)c(-c3ccc4c(c3)CCNC4=O)n2)cc1` [6-(3-amino-6-(4-(tert-butyl)phenyl)pyrazin-2-yl)-3,4-dihydroisoquinolin-1(2H)-one] has an IC50 [1] of under 0.05 µM and an IC50 [2] of under 0.01 µM.

With `CCN(C)S(=O)(=O)c1cnc(-c2cnc(N)c(-c3ccc4c(c3)CCNC4=O)n2)cc1C` [6-(5-amino-6-(1-oxo-1,2,3,4-tetrahydroisoquinolin-6-yl)pyrazin-2-yl)-N-ethyl-N,4-dimethylpyridine-3-sulfonamide] the IC50 [1] was under 0.01 µM and the IC50 [2] was under 0.01 µM.

In the case of `COC(=O)CN(C)S(=O)(=O)c1ccc(-c2cnc(N)c(-c3ccc4c(c3)CCNC4=O)c2)cc1` [methyl 2-(4-(6-amino-5-(1-oxo-1,2,3,4-tetrahydroisoquinolin-6-yl)pyridin-3-yl)-N-methylphenylsulfonamido)acetate], the IC50 [1] is reported as under 0.15 µM and the IC50 [2] is reported as under 0.05 µM.

Compound `Nc1ncc(-c2ccc(S(=O)(=O)NC3CC3)cc2)cc1-c1ccc2c(c1)C1(CC1)NC2=O` [4-(6-amino-5-(3′-oxospiro[cyclopropane-1,1′-isoindolin]-6′-yl)pyridin-3-yl)-N-cyclopropylbenzenesulfonamide] has an IC50 [1] of under 0.01 µM and an IC50 [2] of under 0.01 µM.

Work on `CN(C1CC1)S(=O)(=O)c1ccc(-c2cnc(N)c(-c3ccc4c(=O)[nH]ccc4c3)n2)cc1` [4-(5-amino-6-(1-oxo-1,2-dihydroisoquinolin-6-yl)pyrazin-2-yl)-N-cyclopropyl-N-methylbenzenesulfonamide] yielded an IC50 [1] of under 0.01 µM and an IC50 [2] of under 0.01 µM.

`CN(C1CC1)S(=O)(=O)c1ccc(-c2cnc(N)c(-c3ccc4c(c3)C(C)(C)CNC4=O)n2)cc1` [4-(5-amino-6-(4,4-dimethyl-1-oxo-1,2,3,4-tetrahydroisoquinolin-6-yl)pyrazin-2-yl)-N-cyclopropyl-N-methylbenzenesulfonamide] was tested, and the IC50 [1] was under 0.01 µM and the IC50 [2] was under 0.01 µM.
